Patent publication US10363251B2, “(+)-morphinans as antagonists of toll-like receptor 9 and therapeutic uses thereof” (Mallinckrodt LLC, priority 2009, dated 2019)
Entries after “also recorded” stand apart in the source; their conditions may differ.

Legend:
[1] = system: APAP-induced liver toxicity; assay: Acetaminophen (APAP)-induced hepatotoxicity model; format: in vivo, mouse; details: APAP 500 mg/Kg ip, 12 hours post-APAP; for Protection from APAP-induced toxicity: test doses and timing per Table 6; for Liver histology scores (necrosis and hemorrhage) / Serum alanine transaminase (ALT) levels: vs APAP alone
Procedure: For this, APAP-induced liver toxicity was induced in male C57BL/6 mice aged between 8-10 weeks by a single intraperitoneal (ip) injection of APAP in PBS at a dose of 500 mg/Kg (Imaeda et al. (2009) J. Clin. Invest. 119(2):305-314). The ability of (+)-morphinans to reduce liver toxicity was tested in the following groups:
The (+)-morphinan (or PBS) was either administered as a single subcutaneous (sc) or ip injection concurrent with the APAP injection or one hour prior to the APAP injection.
The mice were sacrificed 12 hours post-APAP treatment. Liver samples were stained with H&E and analyzed for signs of necrosis and hemorrhage. Histology scores were assigned using the standard rating scale. The levels of serum alanine transaminase (ALT) were also measured in each animal using a standard assay.

TLR9 [2] = molecular target: T1, TLR9 (Homo sapiens, UniProt Q9NR96); assay: TLR9 antagonist screening, NF-κB-inducible SEAP reporter in HEK293 cells; format: cell-based; details: for Average % Inhibition at TLR9: 10 μM, stimulated with CpG ODN 2006 at 100 ng/ml
T1 construct: expressed in transfected cells; host or cells: HEK293
T1 sequence (Q9NR96 26-1032): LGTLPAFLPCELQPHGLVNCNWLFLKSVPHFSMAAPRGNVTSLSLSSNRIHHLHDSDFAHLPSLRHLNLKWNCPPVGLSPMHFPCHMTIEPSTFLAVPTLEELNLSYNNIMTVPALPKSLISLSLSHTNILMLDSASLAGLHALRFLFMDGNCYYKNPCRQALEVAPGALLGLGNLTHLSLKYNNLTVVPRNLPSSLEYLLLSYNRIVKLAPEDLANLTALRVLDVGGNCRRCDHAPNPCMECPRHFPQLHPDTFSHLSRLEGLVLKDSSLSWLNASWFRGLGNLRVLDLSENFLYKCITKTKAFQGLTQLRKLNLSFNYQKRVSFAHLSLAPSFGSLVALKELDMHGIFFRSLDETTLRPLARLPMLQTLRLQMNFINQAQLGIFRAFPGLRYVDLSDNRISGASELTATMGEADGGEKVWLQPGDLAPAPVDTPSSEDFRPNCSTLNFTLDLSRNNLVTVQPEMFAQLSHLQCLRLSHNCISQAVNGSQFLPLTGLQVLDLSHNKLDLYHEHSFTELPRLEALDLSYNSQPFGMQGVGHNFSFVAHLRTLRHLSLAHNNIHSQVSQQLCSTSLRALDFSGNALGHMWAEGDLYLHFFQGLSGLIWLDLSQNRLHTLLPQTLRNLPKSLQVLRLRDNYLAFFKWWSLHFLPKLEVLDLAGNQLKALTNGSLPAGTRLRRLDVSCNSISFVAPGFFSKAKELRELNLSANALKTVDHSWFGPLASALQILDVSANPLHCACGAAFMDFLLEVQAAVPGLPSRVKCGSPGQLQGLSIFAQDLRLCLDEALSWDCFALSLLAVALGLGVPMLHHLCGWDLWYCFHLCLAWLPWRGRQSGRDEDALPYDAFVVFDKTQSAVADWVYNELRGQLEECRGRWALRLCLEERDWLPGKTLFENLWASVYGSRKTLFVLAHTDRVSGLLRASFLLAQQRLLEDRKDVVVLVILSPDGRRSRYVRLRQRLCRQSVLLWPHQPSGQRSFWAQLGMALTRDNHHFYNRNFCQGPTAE
Procedure: (§1) Stimulation of TLRs 2, 3, 4, 5, 7, 8, and 9 was determined by assessing activation of the transcription factor NF-κB in HEK293 cells that were engineered to express the corresponding receptors. Assessment of TLR stimulation was based on the use of an NF-κB-inducible secreted alkaline phosphatase (SEAP) reporter system in which the SEAP reporter was under the control of a promoter inducible by NF-κB. Thus, the degree of activation of TLRs can be indirectly quantified spectrophotometrically by measuring the amount of the SEAP reporter that is produced.
(§2) The appropriate TLR-expressing cells were plated in Growth Medium in a 96-well plate (25,000-50,000 cells/well). The cells were stimulated with the appropriate positive control ligand or no ligand was added (negative control). The positive control ligands were: HKLM was used to stimulate TLR2; poly(I:C) was used to stimulate TLR3; LPS was used to stimulate TLR4; Flagellin was used to stimulate TLR5; CL097 was used to stimulate TLR7; CL075 was used to stimulate TLR8; CpG oligodeoxynucleotide (ODN) 2006 was used to stimulate TLR9. To test whether (+)-morphinans could block that activation of the TLR, the cells were pretreated with an antagonist for 30 minutes prior to addition of the positive control ligand. For this, 20 μL of the stock test compound solution (100 μM in H2O) was added to give a total volume of 200 μL. […] After a 16-20 hr incubation period at 37° C. in a CO2 incubator, 20 μL of the cell culture supernatant was added to 180 μL of QUANTI-Blue™ Media (InvivoGen, San Diego, Calif.), and the resulting solutions were incubated at 37° C. for an additional 1-3 hours according to the manufacturer's instructions. The OD's of the samples were then read at 650 nm on a Beckman Coulter AD 340C Absorbance Detector.

TLR4 = molecular target: T2, TLR4 (Homo sapiens, UniProt O00206); assay: TLR4 antagonist screening, NF-κB-inducible SEAP reporter in HEK293 cells; format: cell-based; details: for Average % Inhibition at TLR4: 10 μM, stimulated with LPS at 100 ng/ml
T2 construct: expressed in transfected cells; host or cells: HEK293
T2 sequence (O00206 24-839, species assumed): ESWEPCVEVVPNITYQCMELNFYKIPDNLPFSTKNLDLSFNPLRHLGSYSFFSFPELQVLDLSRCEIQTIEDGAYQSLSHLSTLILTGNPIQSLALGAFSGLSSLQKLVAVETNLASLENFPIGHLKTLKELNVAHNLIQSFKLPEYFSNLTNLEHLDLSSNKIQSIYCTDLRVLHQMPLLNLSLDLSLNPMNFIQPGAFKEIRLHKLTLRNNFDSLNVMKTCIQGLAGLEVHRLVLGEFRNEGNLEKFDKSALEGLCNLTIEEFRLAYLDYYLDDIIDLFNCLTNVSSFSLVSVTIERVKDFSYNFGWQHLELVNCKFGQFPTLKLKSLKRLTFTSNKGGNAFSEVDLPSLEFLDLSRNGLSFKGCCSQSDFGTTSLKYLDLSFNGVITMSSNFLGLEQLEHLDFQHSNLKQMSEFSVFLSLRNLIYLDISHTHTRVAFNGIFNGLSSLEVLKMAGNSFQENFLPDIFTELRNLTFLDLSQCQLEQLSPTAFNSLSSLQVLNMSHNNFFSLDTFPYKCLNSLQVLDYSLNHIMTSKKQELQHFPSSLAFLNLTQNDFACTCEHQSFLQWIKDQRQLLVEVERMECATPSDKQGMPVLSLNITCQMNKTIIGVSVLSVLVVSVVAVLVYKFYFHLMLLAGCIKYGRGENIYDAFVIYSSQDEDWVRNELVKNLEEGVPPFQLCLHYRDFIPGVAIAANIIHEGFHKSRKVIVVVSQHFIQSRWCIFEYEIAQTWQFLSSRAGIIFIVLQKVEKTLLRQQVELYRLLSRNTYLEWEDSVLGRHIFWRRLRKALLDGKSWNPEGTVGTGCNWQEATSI
T2 sequence (Q9Y6Y9 17-160 partner limits assumed, species assumed): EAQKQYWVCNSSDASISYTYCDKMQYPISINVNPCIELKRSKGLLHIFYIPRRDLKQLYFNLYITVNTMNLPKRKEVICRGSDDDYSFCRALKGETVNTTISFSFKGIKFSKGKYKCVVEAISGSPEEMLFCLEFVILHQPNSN
Procedure: as §1, §2

TLR9 [3] = assay: IFN-β up-regulation in plasmacytoid dendritic cells by TLR9 agonist ODN2395; format: cell-based
From the text: (§3) TLR9 signalling involves activation of NF-κB and IRF downstream pathways. The (+)-morphinan inhibited both of these pathways following activation of TLR9 (but not activation of TLR4 or other receptors). The type C TLR9 agonist, ODN2395, and the TL4 agonist, LPS, both induce up-regulation of IL-1β in peritoneal macrophages via activation of NF-κB.

acute pancreatitis = assay: Caerulein-induced acute pancreatitis model; format: in vivo, mouse; details: 30 mg/kg subcutaneously, vs saline
Procedure: Acute pancreatitis can be induced in rodents by administration of caerulein, a CCK analog derived from derived from the Australian tree frog Litoria caerulea. To determine whether a (+)-morphinan could reduce the inflammation and/or consequences of pancreatitis, the following example was performed. Mice were administered subcutaneously an effective dose of caerulein and either saline or Cmpd II-78 (30 mg/kg). After the standard period of time, the mice were sacrificed. Pancreatic tissue sections were stained and examined for neutrophil infiltration, and pancreatic trypsin, serum amylase, and pancreatic caspase −1 activities were measure using standard assays.

[4] = system: cytoplasmic DNA receptor AIM2; assay: IFN-β up-regulation in plasmacytoid dendritic cells by poly (dA:dT); format: cell-based
From the text: as §3

[5] = system: Experimental Autoimmune Encephalomyelitis (EAE); details: bid for 20 days; Cmpd II-98 5 mg/kg sc, others 20 mg/kg sc, Prednisolone 4.5 mg/kg ip; vs vehicle control

Row | SMILES | Protection from APAP-induced toxicity [1] | Liver histology scores (necrosis and hemorrhage) [1] | Serum alanine transaminase (ALT) levels [1] | Average % Inhibition at TLR9 (TLR9 [2]) [%] | Average % Inhibition at TLR4 (TLR4) [%] | other results
1 | C=CCN1CC[C@]23c4c5ccc(O)c4O[C@H]2C(=O)CC[C@]3(O)[C@H]1C5 [(+)-Naloxone, (+)-naloxone] | essentially no protection | did not improve the histology scores | reduced the ALT levels | 45 | 25 | Protection from APAP-induced toxicity ([1]; listed as (+)-naloxone): did not affect acetaminophen-induced hepatotoxicity
2 | COc1ccc2c(c1O)[C@@]13CCN(C)[C@@H](C2)[C@H]1CC(OC)C(=O)C3 (some centres unmarked) [Dihydrosinomenine, dihydrosinomenine] |  |  |  | 42 | 23 | 
3 | CN[C@@H]1CC[C@]2(O)[C@@H]3Cc4ccc(O)c5c4[C@]2(CCN3CC2CC2)[C@@H]1O5 [II-78] | provided protection | reduced to about half | reduced significantly |  |  | IFN-β mRNA up-regulation (IRF pathway) (TLR9 [3]): this activation was inhibited; also recorded: reduced both NFκB- and IRF-dependent pathways downstream of TLR9; Neutrophil infiltration in the pancreas (acute pancreatitis): dramatically reduced; also recorded: reduced neutrophil infiltration in the pancreas; Pancreatic caspase 1 activity (acute pancreatitis): Significant reductions; also recorded: reduced pancreatic caspase 1 activity; Pancreatic trypsin activity (acute pancreatitis): Significant reductions; also recorded: reduced; Serum amylase (acute pancreatitis): Significant reductions; also recorded: reduced serum amylase; IFN-β up-regulation [4]: this activation was not blocked; EAE clinical scores [5]: did not improve EAE
4 | COC1=C[C@@H]2[C@@H]3Cc4ccc(OC)c(O)c4[C@]2(CCN3C)CC1=O [Sinomenine, sinomenine] |  |  |  |  |  | inhibition at 10 µM (TLR9 [2]; HEK293, stimulated with CpG ODN 2006 at 100 ng/ml): 55%; inhibition at 10 µM (TLR4; HEK293, stimulated with LPS at 100 ng/ml): 24%
